Laboratory results as given in patent publication US11203600B2 (Denali Therapeutics Inc., priority 2017, dated 2021).

Biological target: GST-hRIPK1 (8-327) (Homo sapiens (Human), UniProt Q13546)
Assay: Fluorescent Polarization Binding (FP Binding) assay, RIPK1
Details: 10 nM GST-hRIPK1 (8-327), 5 nM fluorescent-labeled ligand, RT, 30 min, mean of at least two independent experiments
Method in brief: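 Compound displacement of 5 nM labelled ligand from 10 nM GST-hRIPK1 (8-327) was read as FP (531/595 nm) after 30 min at RT. Buffer: HEPES pH 7.5, NaCl, MgCl2, CHAPS, DTT, Pluronic; 1% DMSO final. IC50s were averaged over at least two independent runs.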

Sequence of GST-hRIPK1 (8-327) (Q13546 8-327): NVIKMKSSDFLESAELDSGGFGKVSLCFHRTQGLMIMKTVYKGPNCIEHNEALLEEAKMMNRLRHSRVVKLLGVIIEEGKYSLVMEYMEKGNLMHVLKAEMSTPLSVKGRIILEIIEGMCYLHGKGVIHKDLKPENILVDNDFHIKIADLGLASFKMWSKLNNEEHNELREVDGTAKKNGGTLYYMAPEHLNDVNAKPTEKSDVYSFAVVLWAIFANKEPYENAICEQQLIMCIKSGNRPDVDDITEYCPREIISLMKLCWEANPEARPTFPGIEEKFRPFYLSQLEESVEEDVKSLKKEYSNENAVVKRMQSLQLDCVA

Row | Structure (SMILES) | IC50 [nM]
1 | N#Cc1cncc2c1OCCN(C(=O)C(F)(F)C(F)(F)C(F)(F)F)C2 [Example 143, 4-(2,2,3,3,4,4,4,-heptafluorobutanoyl)-3,5-dihydro-2H-pyrido[3,4-f][1,4]oxazepine-9-carbonitrile] | > 1000
2 | CC(C)(CF)C(=O)N1CCOc2c(C#N)cncc2C1 [Example 144, 4-(3-fluoro-2,2-dimethyl-propanoyl)-3,5-dihydro-2H-pyrido[3,4-f][1,4]oxazepine-9-carbonitrile] | 0.1 to 100
3 | CC(C)C(C)(C)C(=O)N1CCOc2c(C#N)cncc2C1 [Example 145, 4-(2,2,3-trimethylbutanoyl)-3,5-dihydro-2H-pyrido[3,4-f][1,4]oxazepine-9-carbonitrile] | 0.1 to 100
4 | CC(C(=O)N1CCOc2c(C#N)cncc2C1)C1CC1 (centres unmarked) [Example 146, 4-(2-cyclopropylpropanoyl)-3,5-dihydro-2H-pyrido[3,4-f][1,4]oxazepine-9-carbonitrile] | 100 to 1000
5 | CC(CF)(CF)C(=O)N1CCOc2c(C#N)cncc2C1 [Example 147, 4-[3-fluoro-2-(fluoromethyl)-2-methyl-propanoyl]-3,5-dihydro-2H-pyrido[3,4-f][1,4]oxazepine-9-carbonitrile] | 0.1 to 100
6 | CSC(C)(C)C(=O)N1CCOc2c(C#N)cncc2C1 [Example 148, 4-(2-methyl-2-methylsulfanyl-propanoyl)-3,5-dihydro-2H-pyrido[3,4-f][1,4]oxazepine-9-carbonitrile] | 0.1 to 100
7 | CC(C)(CC(F)F)C(=O)N1CCOc2c(C#N)cncc2C1 [Example 149, 4-(4,4-difluoro-2,2-dimethyl-butanoyl)-3,5-dihydro-2H-pyrido[3,4-f][1,4]oxazepine-9-carbonitrile] | 100 to 1000
8 | COCC(C)(C)C(=O)N1CCOc2c(C#N)cncc2C1 [Example 150, 4-(3-methoxy-2,2-dimethyl-propanoyl)-3,5-dihydro-2H-pyrido[3,4-f][1,4]oxazepine-9-carbonitrile] | 100 to 1000
9 | CCC(C)(CC)C(=O)N1CCOc2c(C#N)cncc2C1 [Example 151, 4-(2-ethyl-2-methyl-butanoyl)-3,5-dihydro-2H-pyrido[3,4-f][1,4]oxazepine-9-carbonitrile] | 0.1 to 100
10 | CC(C(=O)N1CCOc2c(C#N)cncc2C1)(C(F)(F)F)C(F)(F)F [Example 152, 4-[3,3,3-trifluoro-2-methyl-2-(trifluoromethyl)propanoyl]-3,5-dihydro-2H-pyrido[3,4-f][1,4]oxazepine-9-carbonitrile] | 100 to 1000
11 | CCC(C)(OC)C(=O)N1CCOc2c(C#N)cncc2C1 (centres unmarked) [Example 153, 4-(2-methoxy-2-methyl-butanoyl)-3,5-dihydro-2H-pyrido[3,4-f][1,4]oxazepine-9-carbonitrile] | 0.1 to 100
12 | COC(C)(C(=O)N1CCOc2c(C#N)cncc2C1)C1CC1 (centres unmarked) [Example 154, 4-(2-cyclopropyl-2-methoxy-propanoyl)-3,5-dihydro-2H-pyrido[3,4-f][1,4]oxazepine-9-carbonitrile] | 100 to 1000
13 | N#Cc1cncc2c1OCCN(C(=O)C1CCN(c3ncc(F)cn3)CC1)C2 [Example 155, 4-[1-(5-fluoropyrimidin-2-yl)piperidine-4-carbonyl]-3,5-dihydro-2H-pyrido[3,4-f][1,4]oxazepine-9-carbonitrile] | 0.1 to 100
14 | O=C(C1CCN(c2ncc(F)cn2)CC1)N1CCOc2c(F)cncc2C1 [Example 156, (9-fluoro-3,5-dihydro-2H-pyrido[3,4-f][1,4]oxazepin-4-yl)-[1-(5-fluoropyrimidin-2-yl)-4-piperidyl]methanone] | 0.1 to 100
15 | N#Cc1cncc2c1OCCN(C(=O)C1(F)CCN(c3ncccn3)CC1)C2 [Example 157, 4-(4-fluoro-1-pyrimidin-2-yl-piperidine-4-carbonyl)-3,5-dihydro-2H-pyrido[3,4-f][1,4]oxazepine-9-carbonitrile] | 0.1 to 100
16 | CC(C)(Cl)C(=O)N1CCOc2c(C#N)cncc2C1 [Example 158, 4-(2-chloro-2-methyl-propanoyl)-3,5-dihydro-2H-pyrido[3,4-f][1,4]oxazepine-9-carbonitrile] | 0.1 to 100
17 | N#Cc1cnc(N2CCC(F)(C(=O)N3CCOc4c(F)cncc4C3)CC2)nc1 [Example 159, 2-[4-fluoro-4-(9-fluoro-3,5-dihydro-2H-pyrido[3,4-f][1,4]oxazepine-4-carbonyl)-1-piperidyl]pyrimidine-5-carbonitrile] | 100 to 1000
18 | N#Cc1ccnc(N2CCC(F)(C(=O)N3CCOc4c(F)cncc4C3)CC2)n1 [Example 160, 2-[4-fluoro-4-(9-fluoro-3,5-dihydro-2H-pyrido[3,4-f][1,4]oxazepine-4-carbonyl)-1-piperidyl]pyrimidine-4-carbonitrile] | 100 to 1000
19 | N#Cc1cncc2c1OCCN(C(=O)C1(F)CCN(c3ncc(F)cn3)CC1)C2 [Example 161, 4-[4-fluoro-1-(5-fluoropyrimidin-2-yl)piperidine-4-carbonyl]-3,5-dihydro-2H-pyrido[3,4-f][1,4]oxazepine-9-carbonitrile] | 0.1 to 100
20 | Cc1ccnc(N2CCC(F)(C(=O)N3CCOc4c(C#N)cncc4C3)CC2)n1 [Example 162, 4-[4-fluoro-1-(4-methylpyrimidin-2-yl)piperidine-4-carbonyl]-3,5-dihydro-2H-pyrido[3,4-f][1,4]oxazepine-9-carbonitrile] | 100 to 1000
21 | Cc1cnc(N2CCC(F)(C(=O)N3CCOc4c(C#N)cncc4C3)CC2)nc1 [Example 163, 4-[4-fluoro-1-(5-methylpyrimidin-2-yl)piperidine-4-carbonyl]-3,5-dihydro-2H-pyrido[3,4-f][1,4]oxazepine-9-carbonitrile] | 100 to 1000
22 | N#Cc1cncc2c1OCCN(C(=O)C1(F)CCN(c3ncc(Cl)cn3)CC1)C2 [Example 164, 4-[1-(5-chloropyrimidin-2-yl)-4-fluoro-piperidine-4-carbonyl]-3,5-dihydro-2H-pyrido[3,4-f][1,4]oxazepine-9-carbonitrile] | 0.1 to 100
23 | N#Cc1cncc2c1OCCN(C(=O)C1(F)CCN(c3ncc4c(n3)COC4)CC1)C2 [Example 165, 4-[1-(5,7-dihydrofuro[3,4-d]pyrimidin-2-yl)-4-fluoro-piperidine-4-carbonyl]-3,5-dihydro-2H-pyrido[3,4-f][1,4]oxazepine-9-carbonitrile] | 100 to 1000
24 | N#Cc1cncc2c1OCCN(C(=O)C1(F)CCN(c3nccc4ncnn34)CC1)C2 [Example 166, 4-[4-fluoro-1-([1,2,4]triazolo[1,5-c]pyrimidin-5-yl)piperidine-4-carbonyl]-3,5-dihydro-2H-pyrido[3,4-f][1,4]oxazepine-9-carbonitrile] | 100 to 1000
25 | N#Cc1cncc2c1OCCN(C(=O)C1(F)CCN(c3nccc(C(F)(F)F)n3)CC1)C2 [Example 167, 4-[4-fluoro-1-[4-(trifluoromethyl)pyrimidin-2-yl]piperidine-4-carbonyl]-3,5-dihydro-2H-pyrido[3,4-f][1,4]oxazepine-9-carbonitrile] | 100 to 1000
26 | Cc1cc(C(F)(F)F)nc(N2CCC(F)(C(=O)N3CCOc4c(C#N)cncc4C3)CC2)n1 [Example 168, 4-[4-fluoro-1-[4-methyl-6-(trifluoromethyl)pyrimidin-2-yl]piperidine-4-carbonyl]-3,5-dihydro-2H-pyrido[3,4-f][1,4]oxazepine-9-carbonitrile] | 100 to 1000
